Measured values: PubChem BioAssay AID1918949 (Molecular Pharmacology Branch, DTP, NCI, 2023)

System: K24384-001-R-PDC complex spheroid viability
Assay: Anticancer human tumor K24384-001-R-PDC patient-derived pancreatic adenocarcinoma cell line growth inhibition
Settings: for IC50: curve of first compound; for viability, T/C: stronger effect = lower value
In short: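 Drug combinations with the LSD1 inhibitor iadademstat tested on tumor cells co-cultured as spheroids with endothelial cells and mesenchymal stem cells. Concentrations descended in half-log increments from clinical Cmax or 10 microM.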

[1] = second compound 0.1 µM, first compound 0.00949 µM
[2] = second compound 0.1 µM, first compound 0.03 µM
[3] = second compound 0.1 µM, first compound 0.0949 µM
[4] = second compound 0.1 µM, first compound 0.3 µM
[5] = second compound 0.316 µM, first compound 0.00949 µM
[6] = second compound 0.316 µM, first compound 0.03 µM
[7] = second compound 0.316 µM, first compound 0.0949 µM
[8] = second compound 0.316 µM, first compound 0.3 µM
[9] = second compound 1 µM, first compound 0.00949 µM
[10] = second compound 1 µM, first compound 0.03 µM
[11] = second compound 1 µM, first compound 0.0949 µM
[12] = second compound 1 µM, first compound 0.3 µM
[13] = second compound 3.16 µM, first compound 0.00949 µM
[14] = second compound 3.16 µM, first compound 0.03 µM
[15] = second compound 3.16 µM, first compound 0.0949 µM
[16] = second compound 3.16 µM, first compound 0.3 µM
[17] = second compound 10 µM, first compound 0.00949 µM
[18] = second compound 10 µM, first compound 0.03 µM
[19] = second compound 10 µM, first compound 0.0949 µM
[20] = second compound 10 µM, first compound 0.3 µM
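Further: spheroids exposed to agents for seven days before luminescence viability reading.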
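Wherever viability, T/C is given: 100% = DMSO vehicle control viability.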

## CCc1c2c(nc3ccc(O)cc13)-c1cc3c(c(=O)n1C2)COC(=O)[C@]3(O)CC + NC1CCC(NC2CC2c2ccccc2)CC1
Second compound 0.1 µM
  IC50: < 0.949 nM
Second compound 0.316 µM
  IC50: < 0.949 nM
Second compound 1 µM
  IC50: < 0.949 nM
Second compound 3.16 µM
  IC50: < 0.949 nM
Second compound 10 µM
  IC50: < 0.949 nM
Second compound 0.1 µM, first compound 0.000949 µM
  viability, T/C: 46.4%
Second compound 0.1 µM, first compound 0.003 µM
  viability, T/C: 36.2%
[1]
  viability, T/C: 30.9%
[2]
  viability, T/C: 8.66%
[3]
  viability, T/C: 5.82%
[4]
  viability, T/C: 4.86%
Second compound 0.316 µM, first compound 0.000949 µM
  viability, T/C: 46.2%
Second compound 0.316 µM, first compound 0.003 µM
  viability, T/C: 43.4%
[5]
  viability, T/C: 35%
[6]
  viability, T/C: 10.1%
[7]
  viability, T/C: 4.59%
[8]
  viability, T/C: 4.24%
Second compound 1 µM, first compound 0.000949 µM
  viability, T/C: 41.5%
Second compound 1 µM, first compound 0.003 µM
  viability, T/C: 39%
[9]
  viability, T/C: 31.5%
[10]
  viability, T/C: 9.09%
[11]
  viability, T/C: 5.26%
[12]
  viability, T/C: 4.62%
Second compound 3.16 µM, first compound 0.000949 µM
  viability, T/C: 47.4%
Second compound 3.16 µM, first compound 0.003 µM
  viability, T/C: 43%
[13]
  viability, T/C: 33.2%
[14]
  viability, T/C: 9.39%
[15]
  viability, T/C: 4.03%
[16]
  viability, T/C: 4.04%
Second compound 10 µM, first compound 0.000949 µM
  viability, T/C: 45%
Second compound 10 µM, first compound 0.003 µM
  viability, T/C: 38.1%
[17]
  viability, T/C: 26.3%
[18]
  viability, T/C: 9.03%
[19]
  viability, T/C: 3.67%
[20]
  viability, T/C: 3.1%

## CC(C)CC(NC(=O)C(Cc1ccccc1)NC(=O)c1cnccn1)B(O)O (stereo not given) + NC1CC1c1ccc(-c2cccc(O)c2)cc1
Second compound 0.1 µM
  IC50: 0.518 nM
Second compound 0.316 µM
  IC50: 0.554 nM
Second compound 1 µM
  IC50: 0.541 nM
Second compound 3.16 µM
  IC50: 0.514 nM
Second compound 10 µM
  IC50: 0.383 nM
Second compound 0.1 µM, first compound 0.000316 µM
  viability, T/C: 85.9%
Second compound 0.1 µM, first compound 0.001 µM
  viability, T/C: 2.19%
Second compound 0.1 µM, first compound 0.00316 µM
  viability, T/C: 0.45%
Second compound 0.1 µM, first compound 0.01 µM
  viability, T/C: 0.17%
Second compound 0.1 µM, first compound 0.0316 µM
  viability, T/C: 0.24%
Second compound 0.1 µM, first compound 0.1 µM
  viability, T/C: 0.27%
Second compound 0.316 µM, first compound 0.000316 µM
  viability, T/C: 95.9%
Second compound 0.316 µM, first compound 0.001 µM
  viability, T/C: 1.68%
Second compound 0.316 µM, first compound 0.00316 µM
  viability, T/C: 2.35%
Second compound 0.316 µM, first compound 0.01 µM
  viability, T/C: 0.3%
Second compound 0.316 µM, first compound 0.0316 µM
  viability, T/C: 0.24%
Second compound 0.316 µM, first compound 0.1 µM
  viability, T/C: 1.4%
Second compound 1 µM, first compound 0.000316 µM
  viability, T/C: 92%
Second compound 1 µM, first compound 0.001 µM
  viability, T/C: 1.87%
Second compound 1 µM, first compound 0.00316 µM
  viability, T/C: 0.24%
Second compound 1 µM, first compound 0.01 µM
  viability, T/C: 0.3%
Second compound 1 µM, first compound 0.0316 µM
  viability, T/C: 0.15%
Second compound 1 µM, first compound 0.1 µM
  viability, T/C: 0.92%
Second compound 3.16 µM, first compound 0.000316 µM
  viability, T/C: 85.5%
Second compound 3.16 µM, first compound 0.001 µM
  viability, T/C: 1.44%
Second compound 3.16 µM, first compound 0.00316 µM
  viability, T/C: 0.32%
Second compound 3.16 µM, first compound 0.01 µM
  viability, T/C: 0.19%
Second compound 3.16 µM, first compound 0.0316 µM
  viability, T/C: 0.18%
Second compound 3.16 µM, first compound 0.1 µM
  viability, T/C: 0.22%
Second compound 10 µM, first compound 0.000316 µM
  viability, T/C: 59.5%
Second compound 10 µM, first compound 0.001 µM
  viability, T/C: 1.6%
Second compound 10 µM, first compound 0.00316 µM
  viability, T/C: 3.23%
Second compound 10 µM, first compound 0.01 µM
  viability, T/C: 1.83%
Second compound 10 µM, first compound 0.0316 µM
  viability, T/C: 1.14%
Second compound 10 µM, first compound 0.1 µM
  viability, T/C: 2.44%

## Nc1ccccc1NC(=O)c1ccc(CNC(=O)OCc2cccnc2)cc1 + NC1CC1c1ccc(-c2cccc(O)c2)cc1
Second compound 0.1 µM
  IC50: 430 nM
Second compound 0.316 µM
  IC50: 389 nM
Second compound 1 µM
  IC50: 358 nM
Second compound 3.16 µM
  IC50: 328 nM
Second compound 10 µM
  IC50: 312 nM
[1]
  viability, T/C: 111%
[2]
  viability, T/C: 113%
[3]
  viability, T/C: 118%
[4]
  viability, T/C: 68.7%
Second compound 0.1 µM, first compound 0.949 µM
  viability, T/C: 9.69%
Second compound 0.1 µM, first compound 3 µM
  viability, T/C: 0.15%
[5]
  viability, T/C: 95.7%
[6]
  viability, T/C: 121%
[7]
  viability, T/C: 115%
[8]
  viability, T/C: 63.1%
Second compound 0.316 µM, first compound 0.949 µM
  viability, T/C: 7.2%
Second compound 0.316 µM, first compound 3 µM
  viability, T/C: 0.13%
[9]
  viability, T/C: 101%
[10]
  viability, T/C: 112%
[11]
  viability, T/C: 115%
[12]
  viability, T/C: 58.6%
Second compound 1 µM, first compound 0.949 µM
  viability, T/C: 5.63%
Second compound 1 µM, first compound 3 µM
  viability, T/C: 0.16%
[13]
  viability, T/C: 96.1%
[14]
  viability, T/C: 117%
[15]
  viability, T/C: 109%
[16]
  viability, T/C: 54%
Second compound 3.16 µM, first compound 0.949 µM
  viability, T/C: 3.27%
Second compound 3.16 µM, first compound 3 µM
  viability, T/C: 0.11%
[17]
  viability, T/C: 101%
[18]
  viability, T/C: 110%
[19]
  viability, T/C: 95.6%
[20]
  viability, T/C: 52.5%
Second compound 10 µM, first compound 0.949 µM
  viability, T/C: 3.08%
Second compound 10 µM, first compound 3 µM
  viability, T/C: 0.17%
